Experimental findings from ChEMBL document CHEMBL3098018, “Synthesis of licochalcone analogues with increased anti-inflammatory activity” (Bioorg Med Chem Lett, 2014) are described below.

Data set [1] is described as follows: Antiinflammatory activity in RBL2H3 cells assessed as inhibition of degranulation. It counts as functional, cell-based. The conditions noted are these: Rattus norvegicus, RBL-2H3.
The test system of data set [2] is RAW264.7. The data set is described as follows: Antiinflammatory activity in mouse RAW264.7 cells assessed as inhibition of LPS-stimulated nitric oxide production after 18 hrs by Griess assay. It counts as functional, cell-based. The conditions noted are these: RAW264.7, 18 h. A general note: The Griess reaction detects nitrite, a stable product of nitric oxide.

In data set [3] the test system is RAW264.7. Description: Antiinflammatory activity in mouse RAW264.7 cells assessed as inhibition of LPS-stimulated nitric oxide production at 20 uM after 18 hrs by Griess assay relative to control. In kind it is functional. As to conditions: RAW264.7, 18 h.
In data set [4] the test system is RAW264.7. The data set is described as follows: Antiinflammatory activity in mouse RAW264.7 cells assessed as inhibition of LPS-stimulated nitric oxide production at 2 uM after 18 hrs by Griess assay relative to control. It counts as functional. The conditions noted are these: RAW264.7, 18 h.
For data set [5], the system named is RAW264.7. Description: Cytotoxicity against mouse RAW264.7 cells assessed as cell viability at 20 uM after 24 hrs by MTS assay. It counts as cell-based. The conditions noted are these: raw264.7, 24 h. On the technique in general: Tetrazolium assays rely on reduction of a dye to a coloured formazan, in cell work by metabolically active cells.
Data set [6] concerns RAW264.7. The data set is described as follows: Cytotoxicity against mouse RAW264.7 cells assessed as cell viability at 20 uM after 24 hrs by MTS assay. As to conditions: raw264.7, 24 h.

As usually defined, the IC50 is the concentration at which inhibition is half-maximal. As to `COc1c(/C=C/C(=O)c2ccc(O)cc2)ccc(O)c1CC=C(C)C`, the IC50 in data set [1] was 24 µM.
One may read the inhibition as the relative decrease from the control value, in per cent. For `COc1c(/C=C/C(=O)c2ccc(O)cc2)ccc(O)c1O`, the concentration for half-maximal inhibition (IC50) in data set [1] was above 30 µM; in the data set with RAW264.7 [2], 9.94 µM. Moreover, the inhibition at 20 µM in the data set on RAW264.7 [3] is 69.6%. Further, in the data set with RAW264.7 [4], the inhibition at 2 µM is 17.2%. Further, the Activity entry in the data set on RAW264.7 [5] is “Non-toxic”.
Take `C=C(C)C(C)c1cc(C(=O)/C=C/c2ccc(O)c(O)c2OC)ccc1O` (stereo not drawn): the Activity entry in the data set with RAW264.7 [6] and with RAW264.7 [5] was “Toxic” in each case. The half-maximal inhibitory concentration (IC50) with RAW264.7 [2] worked out at 4.95 µM. For the same compound, in the data set with RAW264.7 [3], the inhibition at 20 µM turned out to be 94.3%. Also, the inhibition at 2 µM in the data set with RAW264.7 [4] came out at 56.5%.
Turning to `COc1c(/C=C/C(=O)c2ccc(O)cc2O)ccc(O)c1O`, the half-maximal inhibitory concentration (IC50) in the data set on RAW264.7 [2] turned out to be 4.72 µM. For the same compound, in the data set with RAW264.7 [3], the inhibition at 20 µM was determined as 96.5%. In addition, the inhibition at 2 µM in the data set on RAW264.7 [4] turned out to be 71.1%. The Activity entry in the data set with RAW264.7 [5] is on record as “Non-toxic”.
For `COc1c(/C=C/C(=O)c2ccc(O)c(O)c2)ccc(O)c1O`, in that order: 10.1 µM, 92.5%, -6% and “Non-toxic”.
`C=CC(C)(C)c1cc(C(=O)/C=C/c2ccc(O)c(O)c2OC)ccc1O`: the Activity entry in the data set on RAW264.7 [6] and in the data set with RAW264.7 [5] was “Toxic” in each case. The IC50 in the data set on RAW264.7 [2] was found to be 2.37 µM. Besides, in the data set with RAW264.7 [3], the inhibition at 20 µM is 96.1%. Moreover, in the data set with RAW264.7 [4], the inhibition at 2 µM worked out at 75.9%.
Take `COc1cc(O)ccc1/C=C/C(=O)c1ccc(O)cc1` [ECHINATIN]: the IC50 in data set [1] was above 30 µM.
Still for that read-out and setting: for `O=C(/C=C/c1ccc(O)cc1)c1ccc(O)cc1O` [ISOLIQUIRITIGENIN] the value was above 30 µM; for `C=CC(C)(C)c1cc(/C=C/C(=O)c2ccc(O)cc2)c(OC)cc1O` [LICOAGROCHACONE A], 17 µM.
As to `COc1c(/C=C/C(=O)c2ccc(O)c(CC=C(C)C)c2)ccc(O)c1O` [LICOCHALCONE D], the concentration for half-maximal inhibition (IC50) in data set [1] was 21 µM; in the data set on RAW264.7 [2] it was 4.85 µM. Also, the Activity entry with RAW264.7 [6] and in the data set with RAW264.7 [5] was “Toxic” in each case. The inhibition at 20 µM in the data set with RAW264.7 [3] was 95.4%. For the same compound, the inhibition at 2 µM with RAW264.7 [4] is 57.8%.
